“Also recorded” adds a separate entry of the source.
What was measured:
[1] = test system: pain threshold of rat's paw made edematous by yeast; assay: Analgesic activity, Randall and Selitto (pain threshold of edematous rat paw); format: in vivo, male Wistar rats; settings: vs basal values
Experimental: It was evaluated according to the following methods: a. Randall and Selitto The pressure to be exerted on a rat's paw previously made edematous by injecting into the plantar zone 0.1 ml of 20% suspension of yeast until appearance of painful reaction was measured in mmHg. The pain threshold was determined 30 minutes before and 30, 60, 90 and 120 minutes after the administration of the substances under test. 10 Male Wistar rats weighing 170-190 g were used for each dosage level and the corresponding average values considered for each dose. The percentage increase of the pain threshold compared to the basal values is taken as the index of the analgesic activity.

[2] = test system: edema induced by carrageenin; assay: Anti-inflammatory activity, Winter's method (carrageenin edema); format: in vivo, male rats; settings: 3 hours after carrageenin
Experimental: This was determined according to Winter's method which evaluates the inhibiting effect on the edema induced by carrageenin.
Male rats weighing 170-190 g were treated with the compounds under test and after 60 minutes 0.005 ml of a 1% aqueous solution of carrageenin were injected into the plantar zone of a hind paw of each animal. The volume of the treated paw was determined immediately after the injection and 3 hours later.
10 Animals were used for each dosage level. The increase difference in the volume of the paw of animals treated compared with the controls represents the index of the anti-inflammatory activity. The results obtained, expressed as percentage inhibition of the volume of the edema compared to the controls and evaluated as average value for each dose are listed in Table 3.

[3] = test system: abdominal stretching induced by phenylbenzoquinone; assay: Analgesic activity, Siegmund (phenylbenzoquinone abdominal stretching); format: in vivo, Swiss male mice; settings: salts' dosage expressed as acid, vs water controls
Experimental: It was evaluated according to the following methods:
The antagonism towards the abdominal stretching induced by phenylbenzoquinone was evaluated. Swiss male mice weighing 19-21 g were treated orally with the compounds under examination 30 minutes before the endoperitoneal administration of 0.25 ml of a […] aqueous phenylbenzoquinone solution. The animals were kept under observation for 30 minutes after treatment with phenylbenzoquinone and the abdominal stretchings for each animal were counted. 10 Mice for each dosage level were used and the corresponding average values considered. The percentage decrease of the number of abdominal stretchings in the animals treated with the substances under test compared with the controls treated with water was taken as the index of the analgesic activity.

[4] = test system: hyperpyressia induced by bactopeptone; assay: Anti-piretic activity, hyperpyressia induced by bactopeptone; format: in vivo, Wistar male rats
Experimental: (§1) This was evaluated considering 2 kinds of hyperpyressia. Hyperpyressia induced by:
1 Milliliter of 5% aqueous solution of bactopeptone preincubated for 18 hours at 37°C were injected subcutaneously in Wistar male rats weighing 170-190 g. 4 Hours after treatment with the pyrogen, the animals were divided into groups of ten animals each and treated orally with the substances under examination. The rectal temperature was taken at the beginning of the test, 4 hours after the injection of the pyrogen agent and subsequently 1, 2 and 3 hours after the administration of the substances under test. The difference between the temperature taken in the treated animals and in controls is an index of the anti-pyretic activity.

[5] = test system: hyperpyressia induced by yeast; assay: Anti-piretic activity, hyperpyressia induced by yeast; format: in vivo, albino rabbits
Experimental: as §1
To albino rabbits, 1 ml/kg of a 0.2% aqueous suspension of yeast were injected intravenously. The rectal temperature was teken at the beginning of the experiment and 60 minutes after the treatment with the pyrogen agent. Immediately after taking the temperature the compounds under test were administered orally to the animals and the rectal temperatures thereof were subsequently measured after 30, 60, 120 and 180 minutes. 10 Animals were treated for each dose level. The difference between the temperatures taken in the animals treated and in the controls is and index of the antipyretic activity. The results obtained by performing the two methods cited above for the determination of the antipyretic activity are listed in Tables 4 and 5 respectively and evaluated as average value for each dose.

[6] = Toxicity / therapeutical index (general statement); settings: statement in words
[7] = Chemical stability (general statement); format: physicochemical; settings: statement in words
[8] = 25 mg/kg i.p., salts' dosage expressed as acid
[9] = 25 mg/kg os, salts' dosage expressed as acid
[10] = 50 mg/kg i.p., salts' dosage expressed as acid
[11] = 50 mg/kg os, salts' dosage expressed as acid
[12] = 5 mg/kg i.p., salts' dosage expressed as acid
[13] = 10 mg/kg os, salts' dosage expressed as acid
[14] = 15 mg/kg os, salts' dosage expressed as acid

SMILES | % Increase of pain threshold [1, 8] [%] | % Increase of pain threshold [1, 9] [%] | % Increase of pain threshold [1, 10] [%] | % Increase of pain threshold [1, 11] [%] | % Inhibition of oedema [2, 12] [%] | % Inhibition of oedema [2, 13] [%] | % Inhibition of oedema [2, 8] [%] | % Inhibition of oedema [2, 10] [%] | % Inhibition of oedema [2, 11] [%] | % Decrease in number of stretchings ([3]; 25 mg/kg os) [%] | % Decrease in number of stretchings ([3]; 50 mg/kg os) [%] | % Decrease in number of stretchings ([3]; 100 mg/kg os) [%] | Rectal temperature, 1 hour after treatment [4, 14] [°C] | Rectal temperature, 2 hours after treatment [4, 14] [°C] | Rectal temperature, 3 hours after treatment [4, 14] [°C] | Rectal temperature, 1 hour after treatment [4, 9] [°C] | Rectal temperature, 2 hours after treatment [4, 9] [°C] | Rectal temperature, 3 hours after treatment [4, 9] [°C] | % Inhibition of oedema ([2]; 2.5 mg/kg i.p.) [%] | Rectal temperature, 30 mins. after treatment ([5]; 10 mg/kg per os) [°C] | also measured
O=C([O-])Cc1ccc(OCC2CC2)c(Cl)c1.O=C([O-])Cc1ccc(OCC2CC2)c(Cl)c1.[Cu+2] [copper 4-cyclopropylmethyleneoxy-3-chlorophenylacetate] | 67 | 62 | 121 | 116 | 32 | 38 | 51 | 61 | 71 | 50 | 81 | 99 | 38.1 | 37.7 | 36.7 | 37.8 | 37.2 | 36.6 |  |  | 
CCCCC1C(=O)N(c2ccccc2)N(c2ccccc2)C1=O [phenylbutazone, 4-butyl-1,2-diphenyl-3,5-dioxopyrazoline, reference compound] | 3 | 33 | 42 | 94 | 3 | 0 | 22 | 55 | 28 | 3 | 65 | 98 | 38.3 | 38.8 | 38.6 | 38.1 | 38.9 | 38.3 | 0 |  | Rectal temperature, 1 hour after treatment ([4]; 100 mg/kg os): 38.1 °C; Rectal temperature, 2 hours after treatment ([4]; 100 mg/kg os): 37.6 °C; Rectal temperature, 3 hours after treatment ([4]; 100 mg/kg os): 37.4 °C
C=CCOc1ccc(CC(=O)O)cc1Cl [4-allyloxy-3-chlorophenylacetic acid, reference compound] | 7 | 15 | 30 | 57 | 10 | 18 | 25 | 57 | 34 | 27 | 58 | 96 | 38.2 | 38.7 | 38.4 | 37.6 | 38.4 | 38.5 | 0 | 40.30 | Rectal temperature, 60 mins. after treatment ([5]; 10 mg/kg per os): 40.13 °C; Rectal temperature, 120 mins. after treatment ([5]; 10 mg/kg per os): 40.06 °C; Rectal temperature, 180 mins. after treatment ([5]; 10 mg/kg per os): 40.03 °C; Rectal temperature, 30 mins. after treatment ([5]; 25 mg/kg per os): 40.35 °C; Rectal temperature, 60 mins. after treatment ([5]; 25 mg/kg per os): 39.85 °C; Rectal temperature, 120 mins. after treatment ([5]; 25 mg/kg per os): 39.30 °C; Rectal temperature, 180 mins. after treatment ([5]; 25 mg/kg per os): 39.25 °C; % Increase of pain threshold ([1]; 100 mg/kg i.p.): 93%; % Increase of pain threshold ([1]; 100 mg/kg os): 92%; Rectal temperature, 1 hour after treatment ([4]; 50 mg/kg os): 37.7 °C; Rectal temperature, 2 hours after treatment ([4]; 50 mg/kg os): 37.5 °C; Rectal temperature, 3 hours after treatment ([4]; 50 mg/kg os): 37.7 °C
O=C(O)Cc1ccc(OCC2CC2)c(Cl)c1 [4-cyclopropylmethyleneoxy-3-chlorophenylacetic acid] | 27 | 44 | 105 | 120 | 37 | 31 | 55 | 61 | 65 | 51 | 77 | 98 | 37.7 | 38.0 | 37.6 | 37.3 | 37.3 | 37.1 | 15 | 40.05 | toxicity [6]: low toxicity; Rectal temperature, 30 mins. after treatment ([5]; 5 mg/kg per os): 40.17 °C; Rectal temperature, 60 mins. after treatment ([5]; 5 mg/kg per os): 40.15 °C; Rectal temperature, 120 mins. after treatment ([5]; 5 mg/kg per os): 40.55 °C; Rectal temperature, 180 mins. after treatment ([5]; 5 mg/kg per os): 40.02 °C; Rectal temperature, 60 mins. after treatment ([5]; 10 mg/kg per os): 39.90 °C; Rectal temperature, 120 mins. after treatment ([5]; 10 mg/kg per os): 39.48 °C; Rectal temperature, 180 mins. after treatment ([5]; 10 mg/kg per os): 39.32 °C; Rectal temperature, 30 mins. after treatment ([5]; 25 mg/kg per os): 40.65 °C; Rectal temperature, 60 mins. after treatment ([5]; 25 mg/kg per os): 39.95 °C; Rectal temperature, 120 mins. after treatment ([5]; 25 mg/kg per os): 39.20 °C; Rectal temperature, 180 mins. after treatment ([5]; 25 mg/kg per os): 39.05 °C; % Increase of pain threshold ([1]; 100 mg/kg i.p.): 176%; % Increase of pain threshold ([1]; 100 mg/kg os): 180%; stability of chemical structure [7]: noticeable stability; also recorded: chemically stable; Rectal temperature, 1 hour after treatment ([4]; 6 mg/kg os): 38.7 °C; Rectal temperature, 2 hours after treatment ([4]; 6 mg/kg os): 39.3 °C; Rectal temperature, 3 hours after treatment ([4]; 6 mg/kg os): 39.1 °C
O=C(O)Cc1ccc(OCC2CC2)c(Cl)c1 [DL-lysine 4-cyclopropylmethyleneoxy-3-chlorophenylacetate] | 83 | 30 | 103 | 104 | 38 | 41 | 64 |  | 81 | 60 | 90 | 100 | 37.6 | 38.0 | 37.8 | 37.4 | 37.0 | 36.7 |  |  | 

Source: patent US3976673A, “4-Cyclopropylmethyleneoxy-3-chlorophenylacetic acid and salts thereof” (priority 1974, dated 1976)
